{"source": "patent US7235715B2", "about": "“Virus-resistant transgenic plants expressing L3” (priority 1998, dated 2007)", "key": {"M1 killer virus": {"test_system": "M1 killer virus", "details": "cited from earlier work"}, "[1]": {"test_system": "programmed −1 ribosomal frameshifting", "experiment": "Programmed −1 ribosomal frameshifting, lacZ reporter plasmids p−1/p0 in yeast", "type": "cell-based, Saccharomyces cerevisiae", "details": "various concentrations, four hours"}, "[2]": {"test_system": "programmed −1 ribosomal frameshifting", "details": "in cells and in in vitro translation extracts (ref. 19); cited from earlier work"}}}
{"smiles": "CSC[S@+]([O-])C[C@H](CO)NC(=O)/C=C/c1c(C)[nH]c(=O)[nH]c1=O", "note": "[sparsomycin]", "values": [{"measurement": "loss of the yeast L-A and its satellite dsRNA virus M1", "setting": "M1 killer virus", "result": "promote loss"}, {"measurement": "effect on programmed −1 ribosomal frameshifting", "setting": "[1]; mak8-1 strains", "result": "neither anisomycin nor sparsomycin had any further effect"}, {"measurement": "effect on programmed −1 ribosomal frameshifting", "setting": "[1]; wild-type cells", "result": "altered ribosomal frameshifting"}, {"measurement": "effect on programmed −1 ribosomal frameshifting efficiencies", "setting": "[2]", "result": "alter"}]}
{"smiles": "COc1ccc(C[C@H]2NC[C@H](O)[C@H]2OC(C)=O)cc1", "note": "[anisomycin]", "values": [{"measurement": "loss of the yeast L-A and its satellite dsRNA virus M1", "setting": "M1 killer virus", "result": "promote loss"}, {"measurement": "effect on programmed −1 ribosomal frameshifting", "setting": "[1]; mak8-1 strains", "result": "neither anisomycin nor sparsomycin had any further effect"}, {"measurement": "effect on programmed −1 ribosomal frameshifting", "setting": "[1]; wild-type cells", "result": "altered ribosomal frameshifting"}, {"measurement": "effect on programmed −1 ribosomal frameshifting efficiencies", "setting": "[2]", "result": "alter"}]}
